Source: the supplement of paper PMC10307832

How the values were obtained:
Assay in all cases: relative viability (nuclei count vs DMSO), 5 days (fraction); higher = more cells survive
Alisertib + Linsitinib = compound: COc1cc(Nc2ncc3c(n2)-c2ccc(Cl)cc2C(c2c(F)cccc2OC)=NC3)ccc1C(=O)O [Alisertib] + C[C@]1(O)C[C@@H](c2nc(-c3ccc4ccc(-c5ccccc5)nc4c3)c3c(N)nccn32)C1 [Linsitinib] (partner 1 µM)
How it was run: (§1)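 Values are medians from duplicate plates. Each reflects relative viability, defined as the nuclei count of treated wells over that of vehicle wells. Lung cancer cell lines in 1536-well plates were pin-tool dosed one day after seeding with one drug alone or with a fixed anchor-drug dose plus five library-drug doses (not always all listed) in √10 steps, then fixed, stained and imaged at 4× after 5 days.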

Alisertib + Pemetrexed = compound: COc1cc(Nc2ncc3c(n2)-c2ccc(Cl)cc2C(c2c(F)cccc2OC)=NC3)ccc1C(=O)O [Alisertib] + Nc1nc2[nH]cc(CCc3ccc(C(=O)N[C@@H](CCC(=O)O)C(=O)O)cc3)c2c(=O)[nH]1 [Pemetrexed] (partner 0.2 µM)
How it was run: as §1

Alisertib + Vorinostat = compound: COc1cc(Nc2ncc3c(n2)-c2ccc(Cl)cc2C(c2c(F)cccc2OC)=NC3)ccc1C(=O)O [Alisertib] + O=C(CCCCCCC(=O)Nc1ccccc1)NO [Vorinostat] (partner 1 µM)
How it was run: as §1

Alisertib + Olaparib = compound: COc1cc(Nc2ncc3c(n2)-c2ccc(Cl)cc2C(c2c(F)cccc2OC)=NC3)ccc1C(=O)O [Alisertib] + O=C(c1cc(Cc2n[nH]c(=O)c3ccccc23)ccc1F)N1CCN(C(=O)C2CC2)CC1 [Olaparib] (partner 8 µM)
How it was run: as §1

| Cell Line | relative viability (Alisertib + Linsitinib; first compound 0.005 µM) | relative viability (Alisertib + Linsitinib; first compound 0.01581 µM) | relative viability (Alisertib + Linsitinib; first compound 0.05 µM) | relative viability (Alisertib + Linsitinib; first compound 0.1581 µM) | relative viability (Alisertib + Linsitinib; first compound 0.5 µM) | relative viability (Alisertib + Pemetrexed; first compound 0.005 µM) | relative viability (Alisertib + Pemetrexed; first compound 0.01581 µM) | relative viability (Alisertib + Pemetrexed; first compound 0.05 µM) | relative viability (Alisertib + Pemetrexed; first compound 0.1581 µM) | relative viability (Alisertib + Pemetrexed; first compound 0.5 µM) | relative viability (Alisertib + Vorinostat; first compound 0.005 µM) | relative viability (Alisertib + Vorinostat; first compound 0.01581 µM) | relative viability (Alisertib + Vorinostat; first compound 0.05 µM) | relative viability (Alisertib + Vorinostat; first compound 0.1581 µM) | relative viability (Alisertib + Vorinostat; first compound 0.5 µM) | relative viability (Alisertib + Olaparib; first compound 0.005 µM) | relative viability (Alisertib + Olaparib; first compound 0.01581 µM) | relative viability (Alisertib + Olaparib; first compound 0.05 µM) | relative viability (Alisertib + Olaparib; first compound 0.1581 µM) | relative viability (Alisertib + Olaparib; first compound 0.5 µM) |
| --- | --- | --- | --- | --- | --- | --- | --- | --- | --- | --- | --- | --- | --- | --- | --- | --- | --- | --- | --- | --- |
| NCI-H2009 | 1.24 | 1.14 | 0.672 | 0.427 | 0.213 | 0.959 | 0.987 | 0.724 | 0.475 | 0.168 | 0.684 | 0.699 | 0.234 | 0.204 | 0.134 | 0.645 | 0.689 | 0.275 | 0.291 | 0.148 |
| NCI-H2023 | 0.653 | 0.505 | 0.355 | 0.285 | 0.108 | 0.192 | 0.222 | 0.177 | 0.152 | 0.101 | 0.565 | 0.31 | 0.215 | 0.12 | 0.0981 | 0.448 | 0.456 | 0.27 | 0.134 | 0.101 |
| NCI-H2085 | 0.876 | 0.85 | 0.516 | 0.389 | 0.281 | 0.638 | 0.896 | 0.837 | 0.27 | 0.294 | 0.73 | 0.771 | 0.431 | 0.441 | 0.448 | 0.74 | 0.723 | 0.4 | 0.335 | 0.35 |
| NCI-H2087 | 0.866 | 0.669 | 0.276 | 0.236 | 0.228 | 0.641 | 0.632 | 0.423 | 0.163 | 0.144 | 0.758 | 0.667 | 0.173 | 0.106 | 0.133 | 0.549 | 0.527 | 0.13 | 0.126 | 0.108 |
| NCI-H2126 | 0.709 | 0.752 | 0.467 | 0.342 | 0.256 | 0.639 | 0.641 | 0.602 | 0.316 | 0.276 | 0.682 | 0.802 | 0.366 | 0.207 | 0.198 | 0.816 | 0.785 | 0.516 | 0.295 | 0.321 |
| NCI-H2228 | 0.55 | 0.936 | 0.317 | 0.12 | 0.095 | 0.344 | 0.336 | 0.26 | 0.121 | 0.0987 | 0.544 | 0.671 | 0.373 | 0.0949 | 0.104 | 0.652 | 0.767 | 0.205 | 0.0922 | 0.0747 |
| NCI-H2347 | 0.967 | 0.954 | 0.812 | 0.729 | 0.478 | 0.424 | 0.423 | 0.416 | 0.409 | 0.349 | 0.522 | 0.569 | 0.518 | 0.407 | 0.343 | 0.555 | 0.546 | 0.474 | 0.491 | 0.365 |
| NCI-H2405 | 0.922 | 0.814 | 0.818 | 0.384 | 0.266 | 1.01 | 1.03 | 0.871 | 0.308 | 0.295 | 0.913 | 0.898 | 0.799 | 0.288 | 0.213 | 0.715 | 0.787 | 0.794 | 0.351 | 0.251 |
| NCI-H3122 | 1.02 | 0.905 | 0.571 | 0.467 | 0.245 | 0.184 | 0.189 | 0.194 | 0.186 | 0.143 | 0.891 | 0.79 | 0.799 | 0.282 | 0.186 | 0.627 | 0.717 | 0.41 | 0.261 | 0.222 |
| PC-3 [JPC-3] | 0.967 | 0.908 | 0.864 | 0.559 | 0.447 | 1.06 | 0.988 | 0.885 | 0.388 | 0.287 | 0.596 | 0.68 | 0.769 | 0.367 | 0.354 | 1.09 | 1.02 | 0.802 | 0.632 | 0.483 |
| PC-14 | 0.91 | 0.848 | 0.774 | 0.222 | 0.117 | 0.103 | 0.138 | 0.146 | 0.0731 | 0.052 | 0.627 | 0.63 | 0.367 | 0.0643 | 0.0761 | 0.23 | 0.225 | 0.13 | 0.0581 | 0.0485 |
| RERF-LC-KJ | 0.92 | 0.789 | 0.581 | 0.207 | 0.227 | 0.441 | 0.466 | 0.415 | 0.273 | 0.216 | 0.626 | 0.507 | 0.391 | 0.252 | 0.213 | 0.883 | 0.687 | 0.25 | 0.223 | 0.251 |
| SK-LU-1 | 1.07 | 0.924 | 0.361 | 0.324 | 0.24 | 0.972 | 0.722 | 0.405 | 0.333 | 0.267 | 0.749 | 0.427 | 0.287 | 0.251 | 0.246 | 0.437 | 0.447 | 0.344 | 0.247 | 0.183 |
| SK-MES-1 | 0.953 | 0.963 | 0.725 | 0.279 | 0.16 | 0.904 | 0.787 | 0.661 | 0.442 | 0.191 | 0.954 | 0.976 | 0.365 | 0.206 | 0.216 | 0.594 | 0.614 | 0.351 | 0.192 | 0.168 |
| SW 1573 | 0.856 | 0.824 | 0.649 | 0.176 | 0.143 | 0.781 | 0.767 | 0.269 | 0.21 | 0.114 | 0.803 | 0.288 | 0.239 | 0.233 | 0.109 | 0.486 | 0.294 | 0.209 | 0.136 | 0.115 |
| UMC-11 | 0.755 | 0.495 | 0.168 | 0.148 | 0.158 | 0.602 | 0.26 | 0.196 | 0.18 | 0.175 | 0.262 | 0.169 | 0.113 | 0.118 | 0.161 | 0.287 | 0.216 | 0.193 | 0.252 | 0.215 |
